Data: patent US5324747A, “N-substituted anilines, inhibitors of phospholipases A2” (Hoffmann-La Roche Inc., priority 1992, dated 1994)

Experiments:
PLA2 Rat Paw Edema = assay: Phospholipase A2 Rat Paw Edema; assay type: in vivo, Lewis rats; conditions: Rattus norvegicus; 2 hr; 30 mg/kg; read-out: % Inhib of PLA2 Rat Paw Edema 2 hr (30 mg/kg)
Experimental: Phospholipase A2 Rat Paw Edema
Representation compounds of the invention were tested in rats to determine their ability to inhibit the acute inflammatory response induced by the injection of snake venom phospholipase A2. Test compounds are administered intraperitoneally or orally to groups of seven Lewis rats (≈200 gm) 1 hr prior to phospholipase A2 administration. The test compounds are dissolved in dimethyl sulfoxide for intraperitoneal administration and dissolved or suspended in Labrafil M-1944CS for oral administration. At 0 hr, 5 ug (10 units) of purified phospholipase A2 from Naja naja venom (Sigma Chem. Co.) dissolved in 0.1 mL of pyrogen free saline is injected subplantarly into the right hind paw to elicit the inflammatory response. The volume (in mL) of the right hind paw is measured by immersion of the paw to the level of the lateral malleolus in an aqueous plethysmometer immediately prior to the injection of phospholipase A2 and then at 0.5, 2 and 4 hr after phospholipase A2 injection. The paw edema is calculated by subtracting the zero time reading from the readings taken after injection. The percent change of the edema volume from the vehicle treated control is calculated to determine the activity of the test compound. Statistical analysis of the mean paw edema values of the control versus the treated groups is performed using Student's t-test. Significance of changes from mean value for vehicle-treated animals (*p<0.05, **p<0.01, ***p<0.001, ns/not significant).

HSF-PLA2 = biological target: T1, HSF-PLA2 (Homo sapiens, UniProt P14555); assay: Assay for Inhibition of HSF-PLA2 In Vitro; assay type: biochemical; conditions: for IC50: read-out: Inhib of HSF-PLA2 IC50
T1 construct: extracellular enzyme obtained from human synovial fluid (HSF-PLA2); from tissue; host or cells: pooled human synovial fluid, added at 0.1% (v/v)
T1 sequence (P14555 21-144): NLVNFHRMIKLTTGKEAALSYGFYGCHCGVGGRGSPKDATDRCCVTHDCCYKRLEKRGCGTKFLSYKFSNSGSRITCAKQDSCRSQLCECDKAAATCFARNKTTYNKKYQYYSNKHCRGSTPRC
Experimental: Assay for Inhibition of HSF-PLA2 In Vitro
The PLA2 used in this test is the extracellular enzyme obtained from human synovial fluid (HSF-PLA2).
The optimal conditions which were developed for the assay of HSF-PLA2 inhibitors are summarized as follows. […] The reaction was initiated by the addition of HSF-PLA2 and duplicate samples of the mixture were incubated in 13×100 mm glass tubes with shaking for 30 minutes at 37° C. […] The extraction of lipids from the stopped reaction mixture was conducted by the further additions of […] of chloroform and 1 ml of water with mixing. After centrifuging, the lower chloroform phase was transferred to smaller glass tubes and the solvent was evaporated to dryness with a nitrogen stream. The extracted lipid residue was redissolved in 50 μl of a solution containing carrier oleic acid (0.2 mg/ml) of chloroform-methanol [9 to 1, v/v]). The whole lipid extract was applied to a preactivated (30 minutes at 110° C.) silica gel-impregnated glass fiber thin layer chromatography sheet (ITLC type SG sheet from Gelman Sciences, Inc., Ann Arbor, Mich.) using hexane-acetic acid (100 to 1, v/v) as the developing solvent. This TLC system rapidly (6 minutes) resolved the enzymatically released product, ^14 C-oleic acid, from the unreacted ^14 C-phospholipid substrate. The unsaturated lipids were located on the chromatogram by a brief exposure to iodine vapor. […] A control incubation of substrate in the absence of HSF-PLA2 was performed in each experiment.

[1] = test system: Croton Oil Mouse Ear Edema; assay: Croton Oil Mouse Ear Edema Test; assay type: in vivo, CD-1 mice; conditions: topical, coapplied, 6 hours
Experimental: Twenty five μl of a 1% croton oil solution [dissolved in a mixture of pyridine/water/diethyl ether at a ratio of 5/20/75 (croton oil vehicle)] are applied to the outer side of the right ear of 3-4 week old made CD-1 mice (8 animals per group). The test compounds are dissolved directly in the 1% croton oil solution at various concentrations and coapplied. Control animals receive 25 μl of croton oil vehicle on the right ear. Biopsy punches are removed at 6 hours from the right ear of the animals using a 6 mm skin trephine (Roboz, Washington, D.C.) and the wet weight of the ear punches is determined. The weight of the biopsy punches is a measure of ear inflammation, primarily edema. The data are expressed as percent inhibition relative to control groups.

[2] = read-out: Inhib of HSF-PLA2, % inhibition

| inhibition at 10 µM (HSF-PLA2; (10 μM), read-out: Inhib of HSF-PLA2, % inhibition) | Structure (SMILES) | inhibition in vivo at 30 mg/kg (PLA2 Rat Paw Edema) | inhibition at 1 µM (HSF-PLA2; [2]) | % Inhib of Croton Oil Mouse Ear Edema (1 mg) [1] | IC50 (HSF-PLA2) | inhibition at 5 µM (HSF-PLA2; [2]) |
| --- | --- | --- | --- | --- | --- | --- |
| – | CCCCCCCCCCCCCCCCCCOc1cc(N(CC(=O)O)CC(=O)O)cc([N+](=O)[O-])c1 [Example 93, N-(Carboxymethyl)-N-[3-nitro-5-(octadecyloxy)phenyl]glycine] | 20% | 56% | 0% | – | – |
| – | CCCCCCCCCCOc1cc(C(=O)O)cc(N(CC(=O)O)CC(=O)O)c1 [Example 69d, N-[3-carboxy-5-(decyloxy)phenyl]-N-(carboxymethyl)glycine] | 0% | 7% | 63% | – | – |
| – | CCCCCCCCCCCCCCCCCCOc1cc(OCCCOc2ccc(OC)cc2)cc(N(CC(=O)O)CC(=O)O)c1 [Example 58k, N-(carboxymethyl)-N-[3-[3-(4-methoxyphenoxy)propoxy]-5-(octadecyloxy)phenyl]glycine] | 0% | – | 85% | 50 nM | – |
| – | CCCCCCCCCCCCCCCCCCOc1cc(C(=O)OC)cc(N(CC(=O)O)CC(=O)O)c1 [Example 69, N-(Carboxymethyl)-N-[3-(methoxycarbonyl)-5-(octadecyloxy)phenyl]glycine] | 57% | – | 22% | 100 nM | – |
| – | CCCCCCCCCC(=O)Oc1ccc(N(CC(=O)O)CC(=O)O)cc1OC(=O)CCCCCCCCC [Example 123, N-(Carboxymethyl)-N-[3,4-bis[(1-oxodecyl)oxy]phenyl]glycine] | 4% | – | 58% | 480 nM | – |
| – | CCCCCCCCCCCCCCCCCCNC(=O)c1cccc(N(CC(=O)O)CC(=O)O)c1 [Example 42] | 38% | – | 0% | 400 nM | – |
| – | CCCCCCCCCCN(CCCCCCCCCC)C(=O)c1cccc(N(CC(=O)O)CC(=O)O)c1 [Example 174] | 46% | – | 29% | – | 74% |
| – | CCCCCCOc1cc(OCCCCCC)cc(N(CC(=O)O)CC(=O)O)c1 [Example 6b, N-(carboxymethyl)-N-[3,5-bis(hexyloxy)phenyl]glycine] | 25% | – | – | 2100 nM | – |
| – | CCCCCCCCCCCCCCCCCCOc1cc(OCC(=O)OC)cc(N(CC(=O)O)CC(=O)O)c1 [Example 58b, N-(carboxymethyl)-N-[3-(2-methoxy-2-oxoethoxy)-5-(octadecyloxy)phenyl]glycine] | 20% | – | 19% | – | 91% |
| – | CCCCCCCCCCCCCCCCCCOc1cc(OCc2ccc3ccccc3n2)cc(N(CC(=O)O)CC(=O)O)c1 [Example 148, N-(Carboxymethyl)-N-[3-(octadecyloxy)-5-[(2-quinolinyl)methoxy]phenyl]glycine] | 37% | 91% | 26% | – | – |
| – | CCCCCCCCCCCCCCOc1ccc(N(CC(=O)O)CC(=O)O)cc1OCCCCCCCCCCCCCC [Example 119, N-(Carboxymethyl)-N-[3,4-bis(tetradecyloxy)phenyl]glycine] | 16% | 36% | 49% | – | – |
| – | CCCCCCCCCCCCCCCCCCNC(=O)Oc1ccc(N(CC(=O)O)CC(=O)O)cc1OC(=O)NCCCCCCCCCCCCCCCCCC [Example 119d, N-(carboxymethyl)-N-[3,4-bis[[(octadecylamino)carbonyl]oxy]phenyl]glycine] | – | 19% | 14% | – | – |
| – | CCCCCCCCCCCCCC(=O)Oc1ccc(N(CC(=O)O)CC(=O)O)cc1OC(=O)CCCCCCCCCCCCC [Example 119b, N-(carboxymethyl)-N-[3,4-bis[(1-oxotetradecyl)oxy]phenyl]glycine] | – | 80% | 75% | – | – |
| – | CCCCCCCCCCOc1cc(C(=O)OC)cc(N(CC(=O)O)CC(=O)O)c1 [Example 69c, N-(carboxymethyl)-N-[(3-methoxycarbonyl)-5-(decyloxy)phenyl]glycine] | 1% | – | 78% | – | – |
| – | CCCCCCCCCCCCCCNC(=O)Oc1ccc(N(CC(=O)O)CC(=O)O)cc1OC(=O)NCCCCCCCCCCCCCC [Example 119e, N-(carboxymethyl)-N-[3,4-bis[[(tetradecylamino)carbonyl]oxy]phenyl]glycine] | – | 33% | 0% | – | – |
| – | CCCCOc1cc(OCCCC)cc(N(CC(=O)O)CC(=O)O)c1 [Example 6a, N-[3,5-bis(butoxy)phenyl]-N-(carboxymethyl)glycine] | 33% | – | – | 2000 nM | – |
| – | CCCCCCCCCCCCCCCCCCOc1cc(OCCCOc2ccc(C(=O)O)cc2)cc(N(CC(=O)O)CC(=O)O)c1 [Example 58p] | – | – | 0% | 600 nM | – |
| – | CCCCCCCCCCOc1cc(OCCCCCCCCCC)cc(N(CC(=O)O)CC(=O)OC)c1 [Example 31, N-(2-Methoxy-2-oxoethyl)-N-[3,5-bis(decyloxy)phenyl]glycine] | 21% | – | 50% | – | – |
| – | CCCCCCCCCCOc1cc(OCCCCCCCCCC)cc(N(CC(=O)OCC(=O)N(CCO)CCO)CC(=O)OCC(=O)N(CCO)CCO)c1 [Example 131] | 18% | – | 47% | – | – |
| – | CCCCCCCCCCCCCCCCCCOc1cc(OCCOCCOCCOCCOC)cc(N(CC(=O)O)CC(=O)O)c1 [Example 156, N-(Carboxymethyl)-N-[3-[2-[2-(2-methoxyethoxy)ethoxy]ethoxy]ethoxy]-5-(octadecyloxy)phenyl glycine] | 29% | 100% | – | – | – |
| – | CCCCCCCCCCCCCCCCCCOc1cc(N(CC(=O)O)CC(=O)O)cc([S+](C)[O-])c1 (centres unmarked) [Example 172, N-(Carboxymethyl)-N-[3-(methylsulfinyl)-5-(octadecyloxy)phenyl]glycine] | 43% | 39% | – | – | – |
| – | CCCCCCCCCCCCCCCCCC(=O)Nc1cccc(N(CC(=O)O)CC(=O)O)c1 [Example 46] | 44% | – | 35% | – | – |
| – | CCCCCCCCC(O)COc1cc(OCC(O)CCCCCCCC)cc(N(CC(=O)O)CC(=O)O)c1 (racemic) [Example 6h, rac-N-(carboxymethyl)-N-[3,5-bis[[2-hydroxydecyl)oxy]phenyl]glycine] | 5% | – | – | 500 nM | – |
| – | CCCCc1ccc(N(CC(=O)O)CC(=O)O)cc1 [Example 39b, N-(carboxymethyl)-N-(4-butylphenyl)glycine] | -9% | – | – | 264000 nM | – |
| 55% | CCCCCCCCCCCCCCCCCCOc1cccc(NCC(=O)O)c1 [Example 125, N-[3-(Octadecyloxy)phenyl]glycine] | – | – | 75% | – | – |
| – | CCCCCCCCCCCCCCCc1cccc(OCCCOc2cccc(N(CC(=O)O)CC(=O)O)c2)c1 [Example 36i, N-(carboxymethyl)-N-[3-{3-(3-pentadecylphenoxy)propoxy]phenyl]glycine] | 7% | – | – | 400 nM | – |
| – | CCCCCCCCCCCCCCCCCCOc1cc(NC(C)=O)cc(N(CC(=O)O)CC(=O)O)c1 [Example 98] | 51% | 98% | – | – | – |
| – | CCCCCCCCCCOc1cc(OCCCCCCCCCC)cc(N(CC(=O)OCOC(C)=O)CC(=O)OCOC(C)=O)c1 [Example 132, N-[2-[(Acetyloxy)methoxy]-2-oxoethyl]-N-[3,5-bis(decyloxy)phenyl]glycine (acetyloxy)methyl ester] | – | – | 36% | – | – |
